Source: US10258561B2, “Cosmetic composition containing a brown alga extract, a yeast extract and ascorbic acid” (LVMH RECHERCHE, priority 2013, dated 2019)

Test system: synthesis of procollagen I by normal human fibroblasts (NHF)
Assay: Synthesis of type I procollagen by aged normal human fibroblasts, ELISA on culture supernatants
Type: cell-based
Conditions: active agents alone
Text: The influence of the extracts constituting the combination of the invention on the synthesis of procollagen I by normal human fibroblasts (NHF) is studied. Procollagen is a precursor form of collagen secreted in the extracellular medium where the ends are cut in order to result in the collagen subunit. The combining of these collagen molecules will subsequently create the collagen fibers. 1. Cell Model • Type: Normal human fibroblasts (NHF), aged by passages in culture (20th passage). • Culturing conditions: 37° C., 5% CO2. • Culture medium: (Invitrogen 21090-22) supplemented with L-glutamine 2 mM, penicillin 50 UI/ml-streptomycin 50 μg/ml, 10% FCS (Biowest S1810). • Test medium: […]. The active agents are dissolved in the culture medium at the concentration specified in the following table. The synthesis of type I procollagen by these cells was evaluated by the ELISA technique from the culture supernatants of aged fibroblasts. The NHFs are cultured in a 96-well microplate at the rate of 7500 cells/well for 24 hours. At 80% confluence, the medium is replaced with the test medium containing the active agents to be tested or the references. The cells are incubated for 72 hours. The culture supernatants are subsequently recovered and stored at −20° C. while awaiting assaying. […] The amounts of procollagen I are expressed as ng/mg of protein. […]

Q: How did the “Procoll. I (ng/mg of prot)” value (aged NHF (20th passage), 72 hours, untreated control 1439 ± 161) turn out when `O=C1O[C@H]([C@@H](O)CO)C(O)=C1O` [Vitamin C, Ascorbic acid] was run?
A: 2431 ± 55 ng/mg of prot

Q: And the Variation (vs untreated control)?
A: +67%
